pIC50: −log10 of the molar value.
target: Endothelial lipase (EL) (Homo sapiens (Human), UniProt Q9Y5X9); assay: Endothelial lipase (EL) enzymatic assay with fluorescent substrate A10070 in DMPG vesicles; type: biochemical; conditions: not given
Method in brief: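 EL from conditioned medium of HT-1080 cells engineered to overexpress endogenous EL; HL partially purified from conditioned medium of HL-overexpressing COS cells. Enzyme preincubated with compound 30 min at 37° C in 50 mM HEPES pH 8.0, 50 mM NaCl, 1 mM CaCl2; DMPG vesicles carrying FRET substrate (0.11 mole fraction) then added.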

Chain of Endothelial lipase (EL) (Q9Y5X9 21-500): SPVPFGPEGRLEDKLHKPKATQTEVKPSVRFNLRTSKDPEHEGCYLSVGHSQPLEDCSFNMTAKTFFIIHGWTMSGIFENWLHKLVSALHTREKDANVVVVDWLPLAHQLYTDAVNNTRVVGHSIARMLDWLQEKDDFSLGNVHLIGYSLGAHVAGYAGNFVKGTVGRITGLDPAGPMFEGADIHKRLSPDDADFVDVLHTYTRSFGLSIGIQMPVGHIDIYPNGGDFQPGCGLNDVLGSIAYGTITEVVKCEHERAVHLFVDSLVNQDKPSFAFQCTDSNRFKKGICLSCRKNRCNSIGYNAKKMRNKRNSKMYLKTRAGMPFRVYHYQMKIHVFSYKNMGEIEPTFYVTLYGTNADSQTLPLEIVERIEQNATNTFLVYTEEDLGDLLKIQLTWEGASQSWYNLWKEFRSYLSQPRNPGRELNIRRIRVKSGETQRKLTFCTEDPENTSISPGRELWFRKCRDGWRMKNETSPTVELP

| SMILES | pIC50 |
| --- | --- |
| O=C(CNC(=O)C(c1nc2ccc(-c3ccc(F)nc3)cc2s1)S(=O)(=O)N1CCOCC1)NC1CC1 (stereo not shown) [Example 483, N-[(cyclopropyl-carbamoyl)methyl]-2-[6-(6-fluoropyridin-3-yl)-1,3-benzothiazol-2-yl]-2-(morpholine-4-sulfonyl)acetamide] | 6.52 |
| CN(C)S(=O)(=O)C(C(=O)NCC(=O)NC1CC1)c1nc2ccc(-c3ccc(F)nc3)cc2s1 (stereo not shown) [Example 484, N-[(cyclopropyl-carbamoyl)methyl]-2-(dimethyl-sulfamoyl)-2-[6-(6-fluoropyridin-3-yl)-1,3-benzothiazol-2-yl]acetamide] | 8.15 |
| Cn1ccc(-c2ccc3nc(C(C(=O)NCC(=O)NC4CC4)S(=O)(=O)N4CCOCC4)sc3c2)cc1=O (stereo not shown) [Example 485, N-[(cyclopropyl-carbamoyl)methyl]-2-[6-(1-methyl-2-oxo-1,2-dihydropyridin-4-yl)-1,3-benzothiazol-2-yl]-2-(morpholine-4-sulfonyl)acetamide] | 7.24 |
| O=C(CNC(=O)C(c1nc2cc(F)c(-c3ccc(F)nc3)cc2s1)S(=O)(=O)N1CCOCC1)NC1CC1 (stereo not shown) [Example 486, N-[(cyclopropyl-carbamoyl)methyl]-2-[5-fluoro-6-(6-fluoropyridin-3-yl)-1,3-benzothiazol-2-yl]-2-(morpholine-4-sulfonyl)acetamide] | 7.32 |
| Cc1cc(-c2cc3sc(C(C(=O)NCC(=O)NC4CC4)S(=O)(=O)N4CCOCC4)nc3cc2F)cnn1 (stereo not shown) [Example 487, N-[(cyclopropyl-carbamoyl)methyl]-2-[5-fluoro-6-(6-methylpyridazin-4-yl)-1,3-benzothiazol-2-yl]-2-(morpholine-4-sulfonyl) acetamide] | 7.03 |
| COC(=O)Nc1ccc(-c2cc3sc(C(C(=O)NCC(=O)NC4CC4)S(=O)(=O)N4CCOCC4)nc3cc2F)cc1F (stereo not shown) [Example 488, methyl N-{4-[2-({[(cyclopropyl-carbamoyl)methyl]carbamoyl} (morpholine-4-sulfonyl)methyl)-5-fluoro-1,3-benzothiazol-6-yl]-2-fluorophenyl} carbamate] | 7.89 |
| CN(C)S(=O)(=O)C(C(=O)NCC(=O)NC1CC1)c1nc2c(F)cc(-c3ccc(F)nc3)cc2s1 (stereo not shown) [Example 489, N-[(cyclopropyl-carbamoyl)methyl]-2-(dimethyl-sulfamoyl)-2-[4-fluoro-6-(6-fluoropyridin-3-yl)-1,3-benzothiazol-2-yl]acetamide] | 6.78 |
| Cc1cc(-c2cc(F)c3nc(C(C(=O)NCC(=O)NC4CC4)S(=O)(=O)N(C)C)sc3c2)cnn1 (stereo not shown) [Example 490, N-[(cyclopropyl-carbamoyl)methyl]-2-(dimethyl-sulfamoyl)-2-[4-fluoro-6-(6-methypylridazin-4-yl)-1,3-benzothiazol-2-yl]acetamide] | 6.68 |
| Cc1ncc(-c2cc(F)c3nc(C(C(=O)NCC(=O)NC4CC4)S(=O)(=O)N(C)C)sc3c2)cn1 (stereo not shown) [Example 491, N-[(cyclopropyl-carbamoyl)methyl]-2-(dimethyl-sulfamoyl)-2-[4-fluoro-6-(2-methylpyrimidin-5-yl)-1,3-benzothiazol-2-yl]acetamide] | 7.09 |
| CN(C)S(=O)(=O)C(C(=O)NCC(=O)NC1CC1)c1nc2c(F)cc(-c3ccc4[nH]c(=O)ccc4c3)cc2s1 (stereo not shown) [Example 492, N-[(cyclopropyl-carbamoyl)methyl]-2-(dimethyl-sulfamoyl)-2-[4-fluoro-6-(2-oxo-1,2-dihydroquinolin-6-yl)-1,3-benzothiazol-2-yl]acetamide] | 8.30 |
| CN(C)S(=O)(=O)C(C(=O)NCC(=O)NC1CC1)c1nc2c(F)cc(-c3ccc4c(=O)n(C)ccc4c3)cc2s1 (stereo not shown) [Example 493, N-[(cyclopropyl-carbamoyl)methyl]-2-(dimethyl-sulfamoyl)-2-[4-fluoro-6-(2-methyl-1-oxo-1,2-dihydro-isoquinolin-6-yl)-1,3-benzothiazol-2-yl]acetamide] | 9.00 |
| CN(C)S(=O)(=O)C(C(=O)NCC(=O)NC1CC1)c1nc2c(F)cc(-c3ccc4cnn(C)c4c3)cc2s1 (stereo not shown) [Example 494, N-[(cyclopropyl-carbamoyl)methyl]-2-(dimethyl-sulfamoyl)-2-[4-fluoro-6-(1-methyl-1H-indazol-6-yl)-1,3-benzothiazol-2-yl] acetamide] | 7.36 |
| CN(C)S(=O)(=O)C(C(=O)NCC(=O)NC1CC1)c1nc2c(F)cc(-c3ccc(NC(=O)OCc4ccccc4)cc3)cc2s1 (stereo not shown) [Example 495, benzyl N-{4-[2-({[(cyclopropyl-carbamoyl)methyl]carbamoyl} (dimethyl-sulfamoyl)methyl)-4-fluoro-1,3-benzothiazol-6-yl]phenyl}carbamate] | 8.70 |
| COC(=O)Nc1ccc(-c2cc(F)c3nc(C(C(=O)NCC(=O)NC4CC4)S(=O)(=O)N(C)C)sc3c2)cc1 (stereo not shown) [Example 496, methyl N-{4-[2-({[(cyclopropyl-carbamoyl)methyl]carbamoyl} (dimethyl-sulfamoyl)methyl)-4-fluoro-1,3-benzothiazol-6-yl]phenyl} carbamate] | 8.70 |
| CN(C)S(=O)(=O)C(C(=O)NCC(=O)NC1CC1)c1nc2c(F)cc(-c3ccc(-n4ccccc4=O)cc3)cc2s1 (stereo not shown) [Example 497, N-[(cyclopropyl-carbamoyl)methyl]-2-(dimethyl-sulfamoyl)-2-{4-fluoro-6-[4-(2-oxo-1,2-dihydropyridin-1-yl)phenyl]-1,3-benzothiazol-2-yl}acetamide] | 8.52 |
| CN(C)S(=O)(=O)C(C(=O)NCC(=O)NC1CC1)c1nc2c(F)cc(-c3ccc(-c4ccccc4)nc3)cc2s1 (stereo not shown) [Example 498, N-[(cyclopropyl-carbamoyl)methyl]-2-(dimethyl-sulfamoyl)-2-[4-fluoro-6-(6-phenylpyridin-3-yl)-1,3-benzothiazol-2-yl]acetamide] | 8.52 |
| CN(C)S(=O)(=O)C(C(=O)NCC(=O)NC1CC1)c1nc2c(F)cc(-c3ccc(N4CCCCC4=O)cc3)cc2s1 (stereo not shown) [Example 499, N-[(cyclopropyl-carbamoyl)methyl]-2-(dimethyl-sulfamoyl)-2-{4-fluoro-6-[4-(2-oxopiperidin-1-yl)phenyl]-1,3-benzothiazol-2-yl} acetamide] | 8.40 |
| CN(C)S(=O)(=O)C(C(=O)NCC(=O)NC1CC1)c1nc2c(F)cc(-c3cnc(-c4ccccc4)nc3)cc2s1 (stereo not shown) [Example 500, N-[(cyclopropyl-carbamoyl)methyl]-2-(dimethyl-sulfamoyl)-2-[4-fluoro-6-(2-phenylpyrimidin-5-yl)-1,3-benzothiazol-2-yl]acetamide] | 8.10 |
| CN(C)S(=O)(=O)C(C(=O)NCC(=O)NC1CC1)c1nc2c(F)cc(-c3ccccc3)cc2s1 (stereo not shown) [Example 501, N-[(cyclopropyl-carbamoyl)methyl]-2-(dimethyl-sulfamoyl)-2-(4-fluoro-6-phenyl-1,3-benzothiazol-2-yl)acetamide] | 8.10 |
| CN(C)S(=O)(=O)C(C(=O)NCC(=O)NC1CC1)c1nc2c(F)cc(-c3cccc(NC(=O)OCc4ccccc4)c3)cc2s1 (stereo not shown) [Example 502, benzyl N-{3-[2-({[(cyclopropyl-carbamoyl)methyl]carbamoyl} (dimethyl-sulfamoyl)methyl)-4-fluoro-1,3-benzothiazol-6-yl]phenyl} carbamate] | 8.70 |
| COC(=O)Nc1cccc(-c2cc(F)c3nc(C(C(=O)NCC(=O)NC4CC4)S(=O)(=O)N(C)C)sc3c2)c1 (stereo not shown) [Example 503, methyl N-{3-[2-({[(cyclopropyl-carbamoyl)methyl]carbamoyl} (dimethyl-sulfamoyl)methyl)-4-fluoro-1,3-benzothiazol-6-yl]phenyl} carbamate] | 7.68 |
| CN(C)S(=O)(=O)C(C(=O)NCC(=O)NC1CC1)c1nc2c(F)cc(-c3ccc(-c4nnn[nH]4)cc3)cc2s1 (stereo not shown) [Example 504, N-[(cyclopropyl-carbamoyl)methyl]-2-(dimethyl-sulfamoyl)-2-{4-fluoro-6-[4-(1H-1,2,3,4-tetrazol-5-yl)phenyl]-1,3-benzothiazol-2-yl}acetamide] | 8.00 |
| CN(C)S(=O)(=O)C(C(=O)NCC(=O)NC1CC1)c1nc2c(F)cc(-c3cccc(-n4cccn4)c3)cc2s1 (stereo not shown) [Example 505, N-[(cyclopropyl-carbamoyl)methyl]-2-(dimethyl-sulfamoyl)-2-{4-fluoro-6-[3-(1H-pyrazol-1-yl)phenyl]-1,3-benzothiazol-2-yl}acetamide] | 6.89 |
| CN(C)S(=O)(=O)C(C(=O)NCC(=O)NC1CC1)c1nc2cc(F)c(-c3cccc(-n4cccn4)c3)cc2s1 (stereo not shown) [Example 506, N-[(cyclopropyl-carbamoyl)methyl]-2-(dimethyl-sulfamoyl)-2-{5-fluoro-6-[3-(1H-pyrazol-1-yl)phenyl]-1,3-benzothiazol-2-yl} acetamide] | 7.28 |
| CN(C)S(=O)(=O)C(C(=O)NCC(=O)NC1CC1)c1nc2cc(F)c(-c3ccc(-c4ccccc4)nc3)cc2s1 (stereo not shown) [Example 507, N-[(cyclopropyl-carbamoyl)methyl]-2-(dimethyl-sulfamoyl)-2-[5-fluoro-6-(6-phenylpyridin-3-yl)-1,3-benzothiazol-2-yl]acetamide] | 7.80 |
| CN(C)S(=O)(=O)C(C(=O)NCC(=O)NC1CC1)c1nc2cc(F)c(-c3ccc(-c4ccccn4)cc3)cc2s1 (stereo not shown) [Example 508, N-[(cyclopropyl-carbamoyl)methyl]-2-(dimethyl-sulfamoyl)-2-{5-fluoro-6-[4-(pyridin-2-yl)phenyl]-1,3-benzothiazol-2-yl}acetamide] | 7.82 |

same assay, conditions: EL from conditioned media of HT-1080 cells; 30 min preincubation at 37° C.

| SMILES | pIC50 |
| --- | --- |
| O=C(CNC(=O)C(c1nc2ccc(-c3ccc(F)nc3)cc2s1)S(=O)(=O)CCO)NC1CC1 (stereo not shown) [Example 509, N-[(Cyclopropylcarbamoyl)methyl]-2-[6-(6-fluoropyridin-3-yl)-1,3-benzothiazol-2-yl]-2-(2-hydroxyethanesulfonyl)acetamide] | 6.55 |
| CS(=O)(=O)C(C(=O)NCC(=O)NC1CC1)c1nc2cc(F)c(-c3ccc(NC(=O)OCc4ccccn4)cc3)cc2s1 (stereo not shown) [Example 510, Pyridin-2-ylmethyl (4-(2-(2-((2-(cyclopropylamino)-2-oxoethyl)amino)-1-(methylsulfonyl)-2-oxoethyl)-5-fluorobenzo[d]thiazol-6-yl)phenyl)carbamate] | 8.89 |

From patent US10173991B2, “Sulfone amide linked benzothiazole inhibitors of endothelial lipase” (BRISTOL-MYERS SQUIBB COMPANY, priority 2014, dated 2019)
